Converted amounts (≈) assume the structure as drawn. Where two headings read alike, the source gives them in different places.
Legend:
Salmonella spp. GC 566 = assay: MIC, broth microdilution; details: Salmonella
Description: (§1) Antimicrobial susceptibility testing. The in vitro activities of the antibiotics are determined by the broth microdilution method as recommended by the National Committee for Clinical Laboratory Standards (NCCLS) (1). Mueller-Hinton II broth (MHBII)(BBL Cockeysville, Md.) is the medium employed in the testing procedures. Microtiter plates containing serial dilutions of each antimicrobial agent are inoculated with each organism to yield the appropriate density (10^5 CFU/ml) in a 100 μl final volume. The plates are incubated for 18-22 hours at 35° C. in ambient air.
(§2) Presented in Tables I-XIII are representative compounds of Formula I which were evaluated against a panel of 40 selected gram-positive and gram-negative bacteria strains by pre-incubation in water, mouse serum or human serum. Representative compounds were first incubated in mouse serum for an hour prior to the in vitro testing against a panel of selected gram-positive and gram-negative bacteria strains. All compounds were also pre-incubated in water for an hour prior to testing as control. Representative compounds of Formula I were incubated in human serum prior to MIC determination.

E. coli #311 = assay: In vivo activity (oral, iv; ED50) against E. coli in mice; details: Escherichia coli
Source text: . […] Smith and E. Coli #311 in mammals.
Results of the tests (MIC, oral and IV) are list in Table 7.

Salmonella spp. GC 235 = assay: MIC, broth microdilution; details: Salmonella
Description: as §1
Representative compounds were first incubated in mouse serum for an hour prior to the in vitro testing against a panel of selected gram-positive and gram-negative bacteria strains. All compounds were also pre-incubated in water for an hour prior to testing as control.

S. cholerasius GC 1355 = assay: MIC, broth microdilution
Description: as §1, §2

Staph. aureus Smith = assay: In vitro activity (MIC) against Staph. aureus Smith; assay type: cell-based; details: Staphylococcus aureus
E. coli = assay: In vitro activity (MIC) against E. coli (Table 7); assay type: cell-based; details: Escherichia coli
[1] = single intravenous dose (SIV), read-out: ED50 E. coli #311 SIV
[2] = single oral dose (SOD), read-out: ED50 E. coli #311 SOD
[3] = single intravenous dose, mice, Table 7, read-out: ED50 SIV (E. coli)
[4] = single oral dose, mice, Table 7, read-out: ED50 SOD (E. coli)
[5] = SPP.GC566, pre-incubation in human serum
[6] = SPP.GC566, pre-incubation in mouse serum
[7] = SPP.GC566, pre-incubation in water
[8] = SPP.GC235, pre-incubation in human serum
[9] = SPP.GC235, pre-incubation in mouse serum
[10] = SPP.GC235, pre-incubation in water

Structure (SMILES) | ED50 (E. coli #311; [1]) [mg/kg] | ED50 (E. coli #311; [2]) [mg/kg] | ED50 (E. coli #311; [3]) [mg/kg] | ED50 (E. coli #311; [4]) [mg/kg] | MIC (E. coli) [µg/mL] | MIC (Staph. aureus Smith; Table 6) [µg/mL] | also measured
CCCCN(CC(=O)Nc1cc(N(C)C)c2c(c1O)C(=O)C1=C(O)[C@]3(O)C(=O)C(C(N)=O)=C(O)[C@@H](N(C)C)[C@@H]3C[C@@H]1C2)C(=O)OCOC(=O)c1ccc(F)cc1 [Example 4, ({[(2-{[(5aR,6aS,7S,10aS)-9-(aminocarbonyl)-4,7-bis(dimethylamino)-1,8,10a,11-tetrahydroxy-10,12-dioxo-5,5a,6,6a,7,10,10a,12-octahydrotetracen-2-yl]amino}-2-oxoethyl)(butyl)amino]carbonyl}oxy)methyl 4-fluorobenzoate] | > 2 | > 32 |  |  |  |  | MIC (Salmonella spp. GC 566; SPP.GC566, Salmonella spp. GC 566, Mouse Serum pre-incubation): 4 µg/mL (≈ 5.12 µM); MIC (Salmonella spp. GC 566; SPP.GC566, Salmonella spp. GC 566, Water pre-incubation): > 64 µg/mL; MIC (Salmonella spp. GC 235; SPP.GC235, Salmonella spp. GC 235, Mouse Serum pre-incubation): 2 µg/mL (≈ 2.56 µM); MIC (Salmonella spp. GC 235; SPP.GC235, Salmonella spp. GC 235, Water pre-incubation): > 64 µg/mL; MIC (S. cholerasius GC 1355; S. cholerasius GC 1355, Mouse Serum pre-incubation): 8 µg/mL (≈ 10.2 µM); MIC (S. cholerasius GC 1355; S. cholerasius GC 1355, Water pre-incubation): > 64 µg/mL
CCCN(CC(=O)Nc1cc(N(C)C)c2c(c1O)C(=O)C1=C(O)[C@]3(O)C(=O)C(C(N)=O)=C(O)[C@@H](N(C)C)[C@@H]3C[C@@H]1C2)C(=O)OCOC(=O)c1cc(C)cc(C)c1 [Example 26, ({[(2-{[(5aR,6aS,7S,10aS)-9-(aminocarbonyl)-4,7-bis(dimethylamino)-1,8,10a,11-tetrahydroxy-10,12-dioxo-5,5a,6,6a,7,10,10a,12-octahydrotetracen-2-yl]amino}-2-oxoethyl)(propyl)amino]carbonyl}oxy)methyl 3,5-dimethylbenzoate] |  |  |  |  |  |  | MIC (Staph. aureus Smith; Table 8): 0.5 µg/mL (≈ 0.643 µM)
CCCN(CC(=O)Nc1cc(N(C)C)c2c(c1O)C(=O)C1=C(O)[C@]3(O)C(=O)C(C(N)=O)=C(O)[C@@H](N(C)C)[C@@H]3C[C@@H]1C2)C(=O)OCOC(=O)c1ccc(C(C)(C)C)cc1 [Example 28, ({[(2-{[(5aR,6aS,7S,10aS)-9-(aminocarbonyl)-4,7-bis(dimethylamino)-1,8,10a,11-tetrahydroxy-10,12-dioxo-5,5a,6,6a,7,10,10a,12-octahydrotetracen-2-yl]amino}-2-oxoethyl)(propyl)amino]carbonyl}oxy)methyl 4-tert-butylbenzoate] | > 2 | > 32 |  |  |  |  | MIC (Staph. aureus Smith; Table 8): 32 µg/mL (≈ 39.7 µM)
CN(C)c1cc(NC(=O)CN(C(=O)OCOC(=O)CC(C)(C)C)C(C)(C)C)c(O)c2c1C[C@H]1C[C@H]3[C@H](N(C)C)C(O)=C(C(N)=O)C(=O)[C@@]3(O)C(O)=C1C2=O [Example 42, ({[(2-{[(5aR,6aS,7S,10aS)-9-(aminocarbonyl)-4,7-bis(dimethylamino)-1,8,10a,11-tetrahydroxy-10,12-dioxo-5,5a,6,6a,7,10,10a,12-octahydrotetracen-2-yl]amino}-2-oxoethyl)(tert-butyl)amino]carbonyl}oxy)methyl 3,3-dimethylbutanoate] | 3.1 | 30.3 | 3.1 | 30.3 | > 64 | 8 (≈ 10.6 µM) | 
CCC(C)(C)C(=O)OCOC(=O)N(CC(=O)Nc1cc(N(C)C)c2c(c1O)C(=O)C1=C(O)[C@]3(O)C(=O)C(C(N)=O)=C(O)[C@@H](N(C)C)[C@@H]3C[C@@H]1C2)C(C)(C)C [Example 44, ({[(2-{[(5aR,6aS,7S,10aS)-9-(aminocarbonyl)-4,7-bis(dimethylamino)-1,8,10a,11-tetrahydroxy-10,12-dioxo-5,5a,6,6a,7,10,10a,12-octahydrotetracen-2-yl]amino}-2-oxoethyl)(tert-butyl)amino]carbonyl}oxy)methyl 2,2-dimethylbutanoate] | 2.85 | 42.8 | 2.85 | 42.8 | > 64 | 4 (≈ 5.28 µM) | 
CC(C)C(=O)OCOC(=O)N(CC(=O)Nc1cc(N(C)C)c2c(c1O)C(=O)C1=C(O)[C@]3(O)C(=O)C(C(N)=O)=C(O)[C@@H](N(C)C)[C@@H]3C[C@@H]1C2)C(C)(C)C [Example 45, ({[(2-{[(5aR,6aS,7S,10aS)-9-(aminocarbonyl)-4,7-bis(dimethylamino)-1,8,10a,11-tetrahydroxy-10,12-dioxo-5,5a,6,6a,7,10,10a,12-octahydrotetracen-2-yl]amino}-2-oxoethyl)(tert-butyl)amino]carbonyl}oxy)methyl 2-methylpropanoate] | 1.8 | 64 | 1.8 | 64 | 64 (≈ 87.7 µM) | 1 (≈ 1.37 µM) | 
Cc1ccc(C(=O)OCOC(=O)N(CC(=O)Nc2cc(N(C)C)c3c(c2O)C(=O)C2=C(O)[C@]4(O)C(=O)C(C(N)=O)=C(O)[C@@H](N(C)C)[C@@H]4C[C@@H]2C3)C(C)(C)C)cc1 [Example 47] | 3.17 | > 64 |  |  |  | 4 (≈ 5.14 µM) | 
CCCCCCC(=O)OCOC(=O)N(CC(=O)Nc1cc(N(C)C)c2c(c1O)C(=O)C1=C(O)[C@]3(O)C(=O)C(C(N)=O)=C(O)[C@@H](N(C)C)[C@@H]3C[C@@H]1C2)C(C)(C)C [Example 48, ({[(2-{[(5aR,6aS,7S,10aS)-9-(aminocarbonyl)-4,7-bis(dimethylamino)-1,8,10a,11-tetrahydroxy-10,12-dioxo-5,5a,6,6a,7,10,10a,12-octahydrotetracen-2-yl]amino}-2-oxoethyl)(tert-butyl)amino]carbonyl}oxy)methyl heptanoate] | 1.7 | 29.8 | 1.7 | 29.8 | > 64 | 0.25 (≈ 0.324 µM) | 
CCC(=O)OCOC(=O)N(CC(=O)Nc1cc(N(C)C)c2c(c1O)C(=O)C1=C(O)[C@]3(O)C(=O)C(C(N)=O)=C(O)[C@@H](N(C)C)[C@@H]3C[C@@H]1C2)C(C)(C)C [Example 49, ({[(2-{[(5aR,6aS,7S,10aS)-9-(aminocarbonyl)-4,7-bis(dimethylamino)-1,8,10a,11-tetrahydroxy-10,12-dioxo-5,5a,6,6a,7,10,10a,12-octahydrotetracen-2-yl]amino}-2-oxoethyl)(tert-butyl)amino]carbonyl}oxy)methyl propionate] | 2.2 | 49 | 2.2 | 49 | 64 (≈ 89.4 µM) | 0.25 (≈ 0.349 µM) | 
CN(C)c1cc(NC(=O)CN(C(=O)OCOC(=O)C2CCCCC2)C(C)(C)C)c(O)c2c1C[C@H]1C[C@H]3[C@H](N(C)C)C(O)=C(C(N)=O)C(=O)[C@@]3(O)C(O)=C1C2=O [Example 50, ({[(2-{[(5aR,6aS,7S,10aS)-9-(aminocarbonyl)-4,7-bis(dimethylamino)-1,8,10a,11-tetrahydroxy-10,12-dioxo-5,5a,6,6a,7,10,10a,12-octahydrotetracen-2-yl]amino}-2-oxoethyl)(tert-butyl)amino]carbonyl}oxy)methyl cyclohexanecarboxylate] | 2.59 | > 64 | 1.7 | 29.8 | > 64 | 0.5 (≈ 0.649 µM) | 
CCCCC(=O)OCOC(=O)N(CC(=O)Nc1cc(N(C)C)c2c(c1O)C(=O)C1=C(O)[C@]3(O)C(=O)C(C(N)=O)=C(O)[C@@H](N(C)C)[C@@H]3C[C@@H]1C2)C(C)(C)C [Example 61, ({[(2-{[(5aR,6aS,7S,10aS)-9-(aminocarbonyl)-4,7-bis(dimethylamino)-1,8,10a,11-tetrahydroxy-10,12-dioxo-5,5a,6,6a,7,10,10a,12-octahydrotetracen-2-yl]amino}-2-oxoethyl)(tert-butyl)amino]carbonyl}oxy)methyl pentanoate] | 2 to 4 | > 32 |  |  |  |  | MIC (Salmonella spp. GC 566; [5]): 32 µg/mL (≈ 43 µM); MIC (Salmonella spp. GC 566; [6]): 1 µg/mL (≈ 1.34 µM); MIC (Salmonella spp. GC 566; [7]): > 64 µg/mL; MIC (Salmonella spp. GC 235; [8]): 16 µg/mL (≈ 21.5 µM); MIC (Salmonella spp. GC 235; [9]): 1 µg/mL (≈ 1.34 µM); MIC (Salmonella spp. GC 235; [10]): > 64 µg/mL; MIC (S. cholerasius GC 1355; pre-incubation in human serum): 64 µg/mL (≈ 86 µM); MIC (S. cholerasius GC 1355; pre-incubation in mouse serum): 2 µg/mL (≈ 2.69 µM); MIC (S. cholerasius GC 1355; pre-incubation in water): > 64 µg/mL
CN(C)c1cc(NC(=O)CN(C(=O)OCOC(=O)C2CCC2)C(C)(C)C)c(O)c2c1C[C@H]1C[C@H]3[C@H](N(C)C)C(O)=C(C(N)=O)C(=O)[C@@]3(O)C(O)=C1C2=O [Example 62, ({[(2-{[(5aR,6aS,7S,10aS)-9-(aminocarbonyl)-4,7-bis(dimethylamino)-1,8,10a,11-tetrahydroxy-10,12-dioxo-5,5a,6,6a,7,10,10a,12-octahydrotetracen-2-yl]amino}-2-oxoethyl)(tert-butyl)amino]carbonyl}oxy)methyl cyclobutanecarboxylate] | 4 to 8 | > 32 |  |  |  |  | MIC (Salmonella spp. GC 566; [5]): 16 µg/mL (≈ 21.6 µM); MIC (Salmonella spp. GC 566; [6]): 1 µg/mL (≈ 1.35 µM); MIC (Salmonella spp. GC 566; [7]): > 64 µg/mL; MIC (Salmonella spp. GC 235; [8]): 8 µg/mL (≈ 10.8 µM); MIC (Salmonella spp. GC 235; [9]): 1 µg/mL (≈ 1.35 µM); MIC (Salmonella spp. GC 235; [10]): > 64 µg/mL; MIC (S. cholerasius GC 1355; pre-incubation in human serum): 32 µg/mL (≈ 43.1 µM); MIC (S. cholerasius GC 1355; pre-incubation in mouse serum): 2 µg/mL (≈ 2.7 µM); MIC (S. cholerasius GC 1355; pre-incubation in water): > 64 µg/mL
CN(C)c1cc(NC(=O)CN(C(=O)OCOC(=O)CCC2CCCCC2)C(C)(C)C)c(O)c2c1C[C@H]1C[C@H]3[C@H](N(C)C)C(O)=C(C(N)=O)C(=O)[C@@]3(O)C(O)=C1C2=O [Example 63, ({[(2-{[(5aR,6aS,7S,10aS)-9-(aminocarbonyl)-4,7-bis(dimethylamino)-1,8,10a,11-tetrahydroxy-10,12-dioxo-5,5a,6,6a,7,10,10a,12-octahydrotetracen-2-yl]amino}-2-oxoethyl)(tert-butyl)amino]carbonyl}oxy)methyl 3-cyclohexylpropanoate] | 4 to 8 | > 32 |  |  |  |  | MIC (Salmonella spp. GC 566; [5]): > 64 µg/mL; MIC (Salmonella spp. GC 566; [6]): 1 µg/mL (≈ 1.25 µM); MIC (Salmonella spp. GC 566; [7]): > 64 µg/mL; MIC (Salmonella spp. GC 235; [8]): > 64 µg/mL; MIC (Salmonella spp. GC 235; [9]): 1 µg/mL (≈ 1.25 µM); MIC (Salmonella spp. GC 235; [10]): > 64 µg/mL; MIC (S. cholerasius GC 1355; pre-incubation in human serum): > 64 µg/mL; MIC (S. cholerasius GC 1355; pre-incubation in mouse serum): 2 µg/mL (≈ 2.51 µM); MIC (S. cholerasius GC 1355; pre-incubation in water): > 64 µg/mL
